Laboratory results taken from patent US12102089B2, “Method for inactivating mold spores” (DSM IP ASSETS B.V., priority 2017, dated 2024).

Tests used:
[1] = LC-MS/MS analysis of natamycin and mycosamine in heated ice tea sample; format: physicochemical; details: 10 ppm natamycin at t=0, heated at 70° C.
Protocol: For the analysis of mycosamine at low concentrations (ppb level) a sample preparation is used with a cation exchange SPE material to isolate mycosamine from the sample matrix and/or remove possible interfering impurities therefrom. The analysis was performed on LC-MS/MS on a ZIC-HILIC column. For the identification and (semi) quantification a reference of mycosamine was prepared. The concentration of mycosamine in this reference was determined with ^1H-NMR.

[2] = tested on: Aspergillus niger ATCC 9029AA; assay: Heat treatment of Aspergillus niger ATCC 9029AA spores in ice tea with natamycin, visual growth; format: cell-based; parameters: key to growth or no growth: growth (+); no growth (−)
Protocol: Commercially available ice tea (Lipton, peach flavor, non-carbonated, 1.5 L) was adjusted to high water hardness by adding 1 ml of a solution of 39 g CaCl2 and 27 g MgCl2 added to 934 g water. ⅓ of this ice tea preparation (the pH of which was 3.15) was left as-such, ⅓ of the preparation was enriched with 5 ppm natamycin and ⅓ of the preparation was enriched with 10 ppm natamycin. Samples of 5 ml were made from each preparation in 15 ml sterile plastic tubes. Of each preparation 8 samples were pre-heated to the desired pasteurization temperature using a water bath. Temperatures used were RT, 60, 65, 70, 75, 80, 85 and 90° C. When the desired temperature was reached, 100 μl of a 2500 spores/ml spore suspension of Aspergillus niger ATCC 9029AA was added to each tube. Subsequently, the samples were kept for 30 seconds at the temperature in question in the water bath. Next, the samples were cooled on ice to a temperature of 25° C. Samples were incubated at 25° C. and visually examined for growth (formation of mold flakes or turbidity) for two months. Additionally, samples were enumerated according to ISO protocol 21527-1.2008 on day 0 (before heat treatment) and day 1 (after heat treatment) to count immediate loss of viability. Enumeration was repeated after 1 month when samples remained free from visual mold growth; most counts were reduced to <10 after heat treatment, but were still able to grow. For the results, see Table 1.

C[C@@H]1C/C=C/C=C/C=C/C=C/[C@H](O[C@@H]2O[C@H](C)[C@@H](O)[C@H](N)[C@@H]2O)C[C@@H]2O[C@](O)(C[C@@H](O)C[C@H]3O[C@@H]3/C=C/C(=O)O1)C[C@H](O)[C@H]2C(=O)O [natamycin]
no germination occurred: germination ([2]; 70° C., in the presence of natamycin)
−: growth or no growth ([2]; 60°C, 5 ppm, day 1) | growth or no growth ([2]; 60°C, 5 ppm, day 2) | growth or no growth ([2]; 60°C, 5 ppm, day 3) | growth or no growth ([2]; 60°C, 5 ppm, day 4) | growth or no growth ([2]; 60°C, 5 ppm, day 5) | growth or no growth ([2]; 60°C, 5 ppm, day 6) | growth or no growth ([2]; 60°C, 10 ppm, day 1) | growth or no growth ([2]; 60°C, 10 ppm, day 2) | growth or no growth ([2]; 60°C, 10 ppm, day 3) | growth or no growth ([2]; 60°C, 10 ppm, day 4) | growth or no growth ([2]; 60°C, 10 ppm, day 5) | growth or no growth ([2]; 60°C, 10 ppm, day 6) | growth or no growth ([2]; 60°C, 10 ppm, day 7) | growth or no growth ([2]; 60°C, 10 ppm, day 8) | growth or no growth ([2]; 60°C, 10 ppm, day 9) | growth or no growth ([2]; 65°C, 5 ppm, day 1) | growth or no growth ([2]; 65°C, 5 ppm, day 2) | growth or no growth ([2]; 65°C, 5 ppm, day 3) | growth or no growth ([2]; 65°C, 5 ppm, day 4) | growth or no growth ([2]; 65°C, 5 ppm, day 5) | growth or no growth ([2]; 65°C, 5 ppm, day 6) | growth or no growth ([2]; 65°C, 5 ppm, day 7) | growth or no growth ([2]; 65°C, 5 ppm, day 8) | growth or no growth ([2]; 65°C, 5 ppm, day 9) | growth or no growth ([2]; 65°C, 5 ppm, day 10) | growth or no growth ([2]; 65°C, 5 ppm, day 11) | growth or no growth ([2]; 65°C, 5 ppm, day 12) | growth or no growth ([2]; 65°C, 5 ppm, day 13) | growth or no growth ([2]; 65°C, 5 ppm, day 14) | growth or no growth ([2]; 65°C, 5 ppm, day 15) | growth or no growth ([2]; 65°C, 5 ppm, day 16) | growth or no growth ([2]; 65°C, 5 ppm, day 17) | growth or no growth ([2]; 65°C, 5 ppm, day 50) | growth or no growth ([2]; 65°C, 10 ppm, day 1) | growth or no growth ([2]; 65°C, 10 ppm, day 2) | growth or no growth ([2]; 65°C, 10 ppm, day 3) | growth or no growth ([2]; 65°C, 10 ppm, day 4) | growth or no growth ([2]; 65°C, 10 ppm, day 5) | growth or no growth ([2]; 65°C, 10 ppm, day 6) | growth or no growth ([2]; 65°C, 10 ppm, day 7) | growth or no growth ([2]; 65°C, 10 ppm, day 8) | growth or no growth ([2]; 65°C, 10 ppm, day 9) | growth or no growth ([2]; 65°C, 10 ppm, day 10) | growth or no growth ([2]; 65°C, 10 ppm, day 11) | growth or no growth ([2]; 65°C, 10 ppm, day 12) | growth or no growth ([2]; 65°C, 10 ppm, day 13) | growth or no growth ([2]; 65°C, 10 ppm, day 14) | growth or no growth ([2]; 65°C, 10 ppm, day 15) | growth or no growth ([2]; 65°C, 10 ppm, day 16) | growth or no growth ([2]; 65°C, 10 ppm, day 17) | growth or no growth ([2]; 65°C, 10 ppm, day 50) | growth or no growth ([2]; 70°C, 5 ppm, day 1) | growth or no growth ([2]; 70°C, 5 ppm, day 2) | growth or no growth ([2]; 70°C, 5 ppm, day 3) | growth or no growth ([2]; 70°C, 5 ppm, day 4) | growth or no growth ([2]; 70°C, 5 ppm, day 5) | growth or no growth ([2]; 70°C, 5 ppm, day 6) | growth or no growth ([2]; 70°C, 5 ppm, day 7) | growth or no growth ([2]; 70°C, 5 ppm, day 8) | growth or no growth ([2]; 70°C, 5 ppm, day 9) | growth or no growth ([2]; 70°C, 5 ppm, day 10) | growth or no growth ([2]; 70°C, 5 ppm, day 11) | growth or no growth ([2]; 70°C, 5 ppm, day 12) | growth or no growth ([2]; 70°C, 5 ppm, day 13) | growth or no growth ([2]; 70°C, 5 ppm, day 14) | growth or no growth ([2]; 70°C, 5 ppm, day 15) | growth or no growth ([2]; 70°C, 5 ppm, day 16) | growth or no growth ([2]; 70°C, 5 ppm, day 17) | growth or no growth ([2]; 70°C, 5 ppm, day 50) | growth or no growth ([2]; 70°C, 10 ppm, day 9) | growth or no growth ([2]; 70°C, 10 ppm, day 10) | growth or no growth ([2]; 70°C, 10 ppm, day 11) | growth or no growth ([2]; 70°C, 10 ppm, day 12) | growth or no growth ([2]; 70°C, 10 ppm, day 13) | growth or no growth ([2]; 70°C, 10 ppm, day 14) | growth or no growth ([2]; 70°C, 10 ppm, day 15) | growth or no growth ([2]; 70°C, 10 ppm, day 16) | growth or no growth ([2]; 70°C, 10 ppm, day 17) | growth or no growth ([2]; 70°C, 10 ppm, day 50)
< 0.04 mg/L: natamycin found in sample ([1]; Example 1 ice tea sample (pH 3.15)) | natamycin found in sample ([1]; Example 2 ice tea sample) | natamycin found in sample ([1]; Example 3 ice tea sample)
longer delay: germination ([2]; RT and 60° C., 10 ppm natamycin)
+: growth or no growth ([2]; 60°C, 5 ppm, day 7) | growth or no growth ([2]; 60°C, 5 ppm, day 8) | growth or no growth ([2]; 60°C, 5 ppm, day 9) | growth or no growth ([2]; 60°C, 5 ppm, day 10) | growth or no growth ([2]; 60°C, 5 ppm, day 11) | growth or no growth ([2]; 60°C, 5 ppm, day 12) | growth or no growth ([2]; 60°C, 5 ppm, day 13) | growth or no growth ([2]; 60°C, 5 ppm, day 14) | growth or no growth ([2]; 60°C, 5 ppm, day 15) | growth or no growth ([2]; 60°C, 5 ppm, day 16) | growth or no growth ([2]; 60°C, 5 ppm, day 17) | growth or no growth ([2]; 60°C, 5 ppm, day 50) | growth or no growth ([2]; 60°C, 10 ppm, day 10) | growth or no growth ([2]; 60°C, 10 ppm, day 11) | growth or no growth ([2]; 60°C, 10 ppm, day 12) | growth or no growth ([2]; 60°C, 10 ppm, day 13) | growth or no growth ([2]; 60°C, 10 ppm, day 14) | growth or no growth ([2]; 60°C, 10 ppm, day 15) | growth or no growth ([2]; 60°C, 10 ppm, day 16) | growth or no growth ([2]; 60°C, 10 ppm, day 17) | growth or no growth ([2]; 60°C, 10 ppm, day 50)
delayed germination: germination ([2]; RT and 60° C., 5 ppm natamycin)
